Tested on: Koi (Cyprinus carpio haematopterus)
Assay: Koi exposure toxicity test: liver homogenate antioxidative enzyme activity (SOD, CAT, GPx)
Type: in vivo
Settings: experimental group 1 vs blank group
Protocol: Still further, four groups of identical experimental pools are established in S2. Each group of experimental pools is provided with 3 parallel groups. The size of each experimental pool is unified to 30 L. The water temperature of the experimental pool is 18° C. to 22° C. Each experimental pool is provided with an aerator. The first group of the experimental pools is the waste water control group, the second group is the waste water group, the third group is the tap water control group, and the fourth group is the tap water blank group. The four groups of experimental pools have same conditions except the addition of different water quality. 25 L of raw waste water, experimental waste water, control tap water, and blank tap water are sequentially added to the experimental pool of the waste water control group, the waste water experimental group, the tap water control group, and the […].
Still further, 20 selected Koi are put into each experimental pool in S3 for exposure to poison. The Koi used in the test are those domesticated with tap water and not poisoned by the contaminants. The duration of exposure is 96 h-110 h. During the period of exposure, half water is changed every day with water of same quality to maintain the water quality in a stable condition.
Further, the method in S4 is specifically: the Koi after exposure to poison in each group is dissected and liver is extracted, chopped, and formulated into a homogenate with the liver tissue and physiological saline according to weight (g): volume (mL)=1:9 and the activity of antioxidative enzymes in the homogenate is determined.
Still further, the antioxidative enzyme determined in S4 comprises superoxide dismutase, catalase, and glutathione peroxidase.
Still further, the biological indicators such as the determined enzyme activity described in S4 are determined using a kit, and 5 parallel group assays are set for each sample group.
S1: the waste water to be determined was collected (prepared), […]. […]

OO [H2O2]
produces oxidative stress: oxidative stress on the koi (SOD higher, GPx lower than blank group, not significant) (Example 1, oxidant in UV/H2O2) | oxidative stress on the Koi (SOD higher, GPx lower than blank group, not significant) (Example 3, oxidant in the ozone combined oxidation process) | oxidative stress on the Koi (SOD higher, GPx lower than blank group, not significant) (Example 4, oxidant in the wet oxidation process)
